Drawing on patent US20230086703A1, “N-(4-(5-chloropyridin-3-yl)phenyl)-2-(2-(cyclopropanesulfonamido)pyrimidin-4-yl) butanamide derivatives and related compounds as human CTPS1 inhibitors for the treatment of proliferative diseases” (Step Pharma S.A.S., priority 2019, published 2023), this text covers IC50 for 30 compounds.

The target in the assay is T1, human CTPS1 (Homo sapiens, UniProt P17812).
T1 construct: FLAG (with GG linker); His8 (with GG linker); purchased Proteros biostructures GmbH
T1 sequence (P17812 1-591): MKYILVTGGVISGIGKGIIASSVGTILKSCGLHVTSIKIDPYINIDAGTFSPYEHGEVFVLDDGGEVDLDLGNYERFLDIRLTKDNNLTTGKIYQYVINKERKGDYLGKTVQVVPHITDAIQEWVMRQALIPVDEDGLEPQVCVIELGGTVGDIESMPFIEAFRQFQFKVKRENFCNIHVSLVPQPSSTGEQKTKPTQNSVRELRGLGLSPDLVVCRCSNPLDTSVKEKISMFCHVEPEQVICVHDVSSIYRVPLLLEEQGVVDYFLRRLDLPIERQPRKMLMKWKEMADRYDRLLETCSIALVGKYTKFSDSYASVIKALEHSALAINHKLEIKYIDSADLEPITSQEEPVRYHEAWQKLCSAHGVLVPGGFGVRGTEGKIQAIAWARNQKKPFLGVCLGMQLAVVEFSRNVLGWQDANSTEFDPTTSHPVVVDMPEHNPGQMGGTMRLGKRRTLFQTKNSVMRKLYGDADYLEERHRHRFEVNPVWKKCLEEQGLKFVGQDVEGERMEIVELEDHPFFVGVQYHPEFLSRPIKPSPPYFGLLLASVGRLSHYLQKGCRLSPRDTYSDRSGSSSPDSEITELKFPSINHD
The experiment in a line: Human CTPS1 enzyme inhibition, ADP-Glo Max assay. The class given is biochemical. To be noted: ADP-Glo Max assay; Table 10; read-out: Human CTPS1 Enzyme Inhibition, IC50 grouped by potency range (CTPS1). The method in brief:
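Enzyme preincubated with compound for 10 min at 25 °C in 50 mM Tris pH 8.0, 10 mM MgCl2, 0.01% Tween-20, 2 mM L-cysteine. ATP-to-ADP conversion detected by ADP-Glo Max luminescence after 60 min depletion and 60 min development steps. Percentage inhibition calculated per concentration.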
On the technique in general: ADP-Glo turns the ADP formed in a reaction into a luminescent signal.

Structures are written as SMILES. “And” between values parts separate entries of the source, which are not always exact repeats. Identical values can stand only once. Bounds are passed on as bounds.

As usually defined, the IC50 is the concentration at which inhibition is half-maximal. For the compound `O=C(Nc1ccc(-c2cccnc2)cc1)C(=O)c1csc(NS(=O)(=O)C2CC2)n1` [T104, 2-(2-(cyclopropanesulfonamido)thiazol-4-yl)-2-oxo-N-(4-(pyridin-3-yl)phenyl)acetamide], the IC50 lay within 100 to 1000 nM. Under `CC(C)(C(=O)Nc1ccc(-c2cncc(OC3CC3)n2)cn1)c1csc(NS(=O)(=O)C2CC2)n1` [T142, 2-(2-(cyclopropanesulfonamido)thiazol-4-yl)-N-(5-(6-cyclopropoxypyrazin-2-yl)pyridin-2-yl)-2-methylpropanamide] stands below 100 nM; under `CCC(CC)(C(=O)Nc1ccc(-c2cncc(C#N)n2)cc1)c1csc(NS(=O)(=O)C2CC2)n1` [T161, N-(4-(6-cyanopyrazin-2-yl)phenyl)-2-(2-(cyclopropanesulfonamido)thiazol-4-yl)-2-ethylbutanamide], 100 to 1000 nM and 1000 to 10000 nM. Consider `O=C(Nc1ccc(-c2ccccc2)cc1)C(F)(F)c1csc(NS(=O)(=O)C2CC2)n1` [T60, N-([1,1′-biphenyl]-4-yl)-2-(2-(cyclopropanesulfonamido)thiazol-4-yl)-2,2-difluoroacetamide], for which the half-inhibitory concentration (IC50) lay within 100 to 1000 nM. For `CC(C)(C(=O)Nc1ccc(-c2cccnc2)c(F)c1)c1csc(NS(=O)(=O)C2CC2)n1` [T151, 2-(2-(cyclopropanesulfonamido)thiazol-4-yl)-N-(3-fluoro-4-(pyridin-3-yl)phenyl)-2-methylpropanamide], the IC50 lay within 100 to 1000 nM.

Regarding `COc1cc(-c2cccnc2)ccc1NC(=O)C(C)(C)c1csc(NS(=O)(=O)C2CC2)n1` [T149, 2-(2-(cyclopropanesulfonamido)thiazol-4-yl)-N-(2-methoxy-4-(pyridin-3-yl)phenyl)-2-methylpropanamide], the IC50 was below 100 nM.

For `CC(C)(C(=O)Nc1ncc(-c2cncc(C(F)(F)F)c2)cn1)c1csc(NS(=O)(=O)C2CC2)n1` [T294, 2-(2-(cyclopropanesulfonamido)thiazol-4-yl)-2-methyl-N-(5-(5-(trifluoromethyl)pyridin-3-yl)pyrimidin-2-yl)propanamide], the concentration for half-maximal inhibition (IC50) is 100 to 1000 nM.

With `CC(C)(C(=O)Nc1ccc(-c2cncc(F)c2)cn1)c1csc(NS(=O)(=O)C2CC2)n1` [T261, 2-(2-(cyclopropanesulfonamido)thiazol-4-yl)-N-(5′-fluoro-[3,3′-bipyridin]-6-yl)-2-methylpropanamide], the IC50 was below 100 nM. For the compound `CC(C)(C(=O)Nc1ccc(-c2cncc(Cl)c2)cc1F)c1csc(NS(=O)(=O)C2CC2)n1` [T128, N-(4-(5-chloropyridin-3-yl)-2-fluorophenyl)-2-(2-(cyclopropanesulfonamido)thiazol-4-yl)-2-methylpropanamide], the IC50 was below 100 nM. As for `CCC(CC)(C(=O)Nc1ccc(-c2cncc(F)c2)cc1)c1csc(NS(=O)(=O)C2CC2)n1` [T156, 2-(2-(cyclopropanesulfonamido)thiazol-4-yl)-2-ethyl-N-(4-(5-fluoropyridin-3-yl)phenyl)butanamide], the figure is below 100 nM; as for `COc1cc(-c2cncc(C(F)(F)F)c2)ccc1NC(=O)C(C)(C)c1csc(NS(=O)(=O)C2CC2)n1` [T259, 2-(2-(cyclopropanesulfonamido)thiazol-4-yl)-N-(2-methoxy-4-(5-(trifluoromethyl)pyridin-3-yl)phenyl)-2-methylpropanamide], below 100 nM. Under `COc1cccc(-c2ccc(NC(=O)C(C)(C)c3csc(NS(=O)(=O)C4CC4)n3)nc2)c1` [T232, 2-(2-(cyclopropanesulfonamido)thiazol-4-yl)-N-(5-(3-methoxyphenyl)pyridin-2-yl)-2-methylpropanamide] stands 100 to 1000 nM; under `CN(C(=O)C(C)(C)c1csc(NS(=O)(=O)C2CC2)n1)c1ccc(-c2cncc(Cl)c2)cc1` [T318, N-(4-(5-chloropyridin-3-yl)phenyl)-2-(2-(cyclopropanesulfonamido)thiazol-4-yl)-N,2-dimethylpropanamide], 1000 to 10000 nM. Regarding `CC(C)(C(=O)Nc1ccc(-c2cncc(Cl)n2)cn1)c1csc(NS(=O)(=O)C2CC2)n1` [T262, N-(5-(6-chloropyrazin-2-yl)pyridin-2-yl)-2-(2-(cyclopropanesulfonamido)thiazol-4-yl)-2-methylpropanamide], the IC50 was below 100 nM. Under `CC(C)(C(=O)Nc1ccc(-c2cncnc2)nc1)c1csc(NS(=O)(=O)C2CC2)n1` [T117, 2-(2-(cyclopropanesulfonamido)thiazol-4-yl)-2-methyl-N-(6-(pyrimidin-5-yl)pyridin-3-yl)propanamide] stands 100 to 1000 nM. As for `CC(C)(C(=O)Nc1ccc(-c2cnccn2)cc1)c1csc(NS(=O)(=O)C2CC2)n1` [T32, 2-(2-(cyclopropanesulfonamido)thiazol-4-yl)-2-methyl-N-(4-(pyrazin-2-yl)phenyl)propanamide], the figure is below 100 nM; as for `CC(C)(C(=O)Nc1ccc(-c2cccc(C(F)(F)F)c2)cn1)c1csc(NS(=O)(=O)C2CC2)n1` [T235, 2-(2-(cyclopropanesulfonamido)thiazol-4-yl)-2-methyl-N-(5-(3-(trifluoromethyl)phenyl)pyridin-2-yl)propanamide], 100 to 1000 nM. `CC(C)(C(=O)Nc1ccc(-c2ccnnc2)cc1)c1csc(NS(=O)(=O)C2CC2)n1` [T31, 2-(2-(cyclopropanesulfonamido)thiazol-4-yl)-2-methyl-N-(4-(pyridazin-4-yl)phenyl)propanamide]: the IC50 lay in the range of 1000 to 10000 nM.

For `CC(C)(C(=O)Nc1ccc(-c2cnccn2)cn1)c1csc(NS(=O)(=O)C2CC2)n1` [T140, 2-(2-(cyclopropanesulfonamido)thiazol-4-yl)-2-methyl-N-(5-(pyrazin-2-yl)pyridin-2-yl)propanamide], the IC50 lay within 100 to 1000 nM. As for `COc1cncc(-c2ccc(NC(=O)C3(c4csc(NS(=O)(=O)C5CC5)n4)CCCC3)cc2)n1` [T130, 1-(2-(cyclopropanesulfonamido)thiazol-4-yl)-N-(4-(6-methoxypyrazin-2-yl)phenyl)cyclopentane-1-carboxamide], the figure is below 100 nM; as for `Cc1ccc(-c2ccc(NC(=O)C(C)(C)c3csc(NS(=O)(=O)C4CC4)n3)cc2)cn1` [T105, 2-(2-(cyclopropanesulfonamido)thiazol-4-yl)-2-methyl-N-(4-(6-methylpyridin-3-yl)phenyl)propanamide], 1000 to 10000 nM; as for `CC(C)(C(=O)Nc1ccc(-c2cncc(OC3CCC3)n2)cc1)c1csc(NS(=O)(=O)C2CC2)n1` [T54, N-(4-(6-cyclobutoxypyrazin-2-yl)phenyl)-2-(2-(cyclopropanesulfonamido)thiazol-4-yl)-2-methylpropanamide], 100 to 1000 nM. As to `COc1cncc(-c2ccc(NC(=O)C(C)(C)c3csc(NS(=O)(=O)C4CC4)n3)cc2)n1` [T265, 2-(2-(cyclopropanesulfonamido)thiazol-4-yl)-N-(4-(6-methoxypyrazin-2-yl)phenyl)-2-methylpropanamide], the IC50 was below 100 nM. In the case of `CC(C)(C(=O)Nc1ccc(-c2cncc(C#N)n2)cn1)c1csc(NS(=O)(=O)C2CC2)n1` [T263, N-(5-(6-cyanopyrazin-2-yl)pyridin-2-yl)-2-(2-(cyclopropanesulfonamido)thiazol-4-yl)-2-methylpropanamide], the IC50 was 1000 to 10000 nM.

On to `COc1cncc(-c2ccc(NC(=O)C(C)(C)c3csc(NS(=O)(=O)C4CC4)n3)nc2)c1` [T224, 2-(2-(cyclopropanesulfonamido)thiazol-4-yl)-N-(5′-methoxy-[3,3′-bipyridin]-6-yl)-2-methylpropanamide], for which the IC50 is below 100 nM.

`CC(C)(C(=O)Nc1ccc(-c2cncc(OC3CC3)n2)cc1)c1csc(NS(=O)(=O)C2CC2)n1` [T273, 2-(2-(cyclopropanesulfonamido)thiazol-4-yl)-N-(4-(6-cyclopropoxypyrazin-2-yl)phenyl)-2-methylpropanamide]: the IC50 is below 100 nM. Under `CC(C)(C(=O)Nc1ccc(-c2ccccc2)cc1)c1csc(NS(=O)(=O)C2CC2)n1` [T97, N-([1,1′-biphenyl]-4-yl)-2-(2-(cyclopropanesulfonamido)thiazol-4-yl)-2-methylpropanamide] stands 100 to 1000 nM; under `CC(C)(C(=O)Nc1ncc(-c2cncc(F)c2)cn1)c1csc(NS(=O)(=O)C2CC2)n1` [T293, 2-(2-(cyclopropanesulfonamido)thiazol-4-yl)-N-(5-(5-fluoropyridin-3-yl)pyrimidin-2-yl)-2-methylpropanamide], 100 to 1000 nM. As for `CCOc1cncc(-c2ccc(NC(=O)C(C)(C)c3csc(NS(=O)(=O)C4CC4)n3)c(F)c2)n1` [T134, 2-(2-(cyclopropanesulfonamido)thiazol-4-yl)-N-(4-(6-ethoxypyrazin-2-yl)-2-fluorophenyl)-2-methylpropanamide], the figure is below 100 nM; as for `CCOc1cncc(-c2ccc(NC(=O)C(C)(C)c3csc(NS(=O)(=O)C4CC4)n3)c(C)c2)n1` [T137, 2-(2-(cyclopropanesulfonamido)thiazol-4-yl)-N-(4-(6-ethoxypyrazin-2-yl)-2-methylphenyl)-2-methylpropanamide], below 100 nM.
